Reference: PMC10779433, “Bidirectional Allosteric Coupling between PIP2 Binding and the Pore of the Oncochannel TRPV6” (International Journal of Molecular Sciences, 2024)
Where two headings read alike, the source gives them in different places. Residues, ends and D or L forms follow the SMILES beside them. *: point of attachment. Palmitoyl = CCCCCCCCCCCCCCCC(=O)*

Assays:
TRPV6 D580A = experiment: NFAT screen, TRPV6 D580A; type: cell-based, human; conditions: HEK293 cells; 5 μM cis-22a, 2 h, vs DMSO
Protocol: (§1) N-terminally TagRFP-labeled human TRPV6 (725 aa) was kindly provided by R. Bhardwaj and M. Hediger (University of Bern, Bern, Switzerland). This variant is translated from the first ATG codon and thus deviates from the non-ATG-initiated protein which is expressed in vivo (accession number NM_018646.6) by lacking 40 amino acids of the very N-terminus. For N-terminal labeling with EYFP, TRPV6 was cloned into pEYFP-C1 (Clontech) via EcoRI and SacII restriction sites. […]
(§2) After incubation, cover slips were carefully rinsed with phenol red-free DMEM supplemented with the compound and dosage corresponding to the previous incubation, which was then also present during imaging. […] Subcellular NFAT localization of TRPV6 expressing cells was again monitored on an Axiovert 135 inverted microscope (Zeiss, Oberkochen, Germany), as described in more detail before. […] Images were analyzed using Matlab2018a, differentiating between three cell populations based on the ratio of CFP emission intensity originating from the nucleus and the cytosol, similar to Schober et al. (2019).

TRPV6 F468A = experiment: NFAT screen, TRPV6 F468A; type: cell-based, human; conditions: HEK293 cells; 5 μM cis-22a, 2 h; nuclear NFAT already reduced without cis-22a
Protocol: as §1, §2

TRPV6 G488R = conditions: ref [62]; cited from earlier work
Source text: As mentioned before, the G488R mutation resides within the segment linking the fourth and fifth transmembrane domain of TRPV6. Importantly, different examples exist throughout the entire TRP superfamily, highlighting the importance of the corresponding protein section for a proper channel function, for instance, by serving as a binding site for different agonists or antagonists.

TRPV6 R470A [1] = experiment: NFAT screen, TRPV6 R470A; type: cell-based, human; conditions: HEK293 cells; 5 μM cis-22a, 2 h, vs DMSO
Protocol: as §1, §2

TRPV6 D580K = experiment: NFAT screen, TRPV6 D580K; type: cell-based, human; conditions: HEK293 cells; 5 μM cis-22a, 2 h, vs DMSO
Protocol: as §1, §2

TRPV6 K484A [2] = conditions: HEK293 cells, ref [62], cited from earlier work
Source text: (§3) Thereby, some mutants which were investigated in our previous publications are shown again to simplify comparison with other treatments.

TRPV6 R470A [3] = conditions: HEK293 cells, ref [47], cited from earlier work
Source text: as §3

TRPV6 K484A [4] = experiment: Whole-cell patch clamp, TRPV6 K484A; type: cell-based, human; conditions: HEK293 cells; 10 μM pal-PIP2 peptide; p < 0.05; Figure 4D
Source text: (§4) N-terminally TagRFP-labeled human TRPV6 (725 aa) was kindly provided by R. Bhardwaj and M. Hediger (University of Bern, Bern, Switzerland). This variant is translated from the first ATG codon and thus deviates from the non-ATG-initiated protein which is expressed in vivo (accession number NM_018646.6) by lacking 40 amino acids of the very N-terminus. For N-terminal labeling with EYFP, TRPV6 was cloned into pEYFP-C1 (Clontech) via EcoRI and SacII restriction sites. Mutations (F468A, R470A, F472A, K484A/Q, G488R, R492A/Q, I575A, G579A, D580A/K, H582A, W583A/F, H587A, R589A, W593A, R632A/Q, R470A, W583F) were introduced using the QuickChange XL site-directed mutagenesis kit (Stratagene, San Diego, CA, USA) and Pfu DNA Polymerase (Promega, Madison, WI, USA). pTagRFP-hTRPV6 I575A was kindly provided by the lab of M. Hediger (University of Bern, Bern, Switzerland). Forward and reverse primers for site-directed mutagenesis were synthesized by Eurofins genomics GmbH (Wien, Vienna, Austria). Intactness of the constructs in terms of sequence was confirmed by sequencing (Microsynth Austria GmbH, Wien, Vienna, Austria; Eurofins genomics GmbH, Wien, Vienna, Austria). […]
(§5) Electrophysiological experiments were performed at 20 °C to 24 °C in whole-cell recording configurations of the patch clamp technique. […] The liquid junction potential was determined as 12 mV; the voltages were not adjusted. […]

TRPV6 R470A W583F = experiment: Whole-cell patch clamp, TRPV6 R470A W583F; type: cell-based, human; conditions: HEK293 cells; 10 μM pal-PIP2 peptide; Figure 6A; compared with W583F
Source text: as §4, §5

| SMILES | change of nuclear NFAT localization (TRPV6 D580A) | reduction of nuclear NFAT localization (TRPV6 F468A) | sensitivity to cis-22a (in words) (TRPV6 G488R) | reduction of nuclear NFAT localization (TRPV6 R470A [1]) | change of nuclear NFAT localization (TRPV6 D580K) | current inhibition vs TRPV6 WT (TRPV6 K484A [2]; 0.1 μM cis-22a) | current inhibition vs TRPV6 WT (TRPV6 K484A [2]; 10 μM cis-22a, after 0.1 μM) | current inhibition vs TRPV6 WT (TRPV6 R470A [3]; 0.1 μM cis-22a) | current inhibition vs TRPV6 WT (TRPV6 R470A [3]; 10 μM cis-22a, after 0.1 μM) | sensitivity to peptide-based PIP2 sequestration vs WT (TRPV6 K484A [4]) | resistance to inhibition by pal-PIP2 peptide (TRPV6 R470A W583F) |
| --- | --- | --- | --- | --- | --- | --- | --- | --- | --- | --- | --- |
| Cc1cccc(C2CCC(N3CCN(c4cccnc4)CC3)CC2)c1.O=C(O)C(F)(F)F (stereo not drawn) [cis-22a] | not significantly changed | further significant reduction in nucleus-targeted NFAT | largely insensitive | failed to significantly reduce NFAT nuclear localization | not significantly changed | significantly reduced | significantly reduced inhibition | significantly reduced | significantly reduced inhibition | – | – |
| CCCCCCCCCCCCCCCC(=O)N[C@@H](Cc1c[nH]cn1)C(=O)N[C@@H](CCCNC(=N)N)C(=O)N[C@@H](CCC(N)=O)C(=O)N[C@@H](CCCCN)C(=O)N[C@@H](Cc1c[nH]cn1)C(=O)N[C@@H](Cc1ccccc1)C(=O)N[C@@H](CCC(=O)O)C(=O)N[C@@H](CCCCN)C(=O)N[C@@H](CCCNC(=N)N)C(=O)N[C@@H](CCCNC(=N)N)C(N)=O [pal-PIP2 peptide] (Palmitoyl-HRQKHFEKRR-NH2) | – | – | – | – | – | – | – | – | – | significantly reduced sensitivity | regained significant resistance to inhibition |
